The values below are quoted from earlier work in patent US20050113271A1, “Automatic dishwashing detergent with improved glass anti-corrosion properties II” (priority 2002, published 2005).

One may read the Solubility as how much of the substance goes into solution per volume.

Like-named read-outs stand apart in the source and are kept apart here.

Consider `[Cl-].[Cl-].[Zn+2]` [Zinc chloride], for which the Solubility (25° C.) is 4320 g/l (25° C.).
Regarding Zinc acetylacetonate, the Solubility (20° C.) was 4 g/l (20° C.).
Consider Zinc hydroxycarbonate, for which the “Solubility (in words)” value (20° C.) is recorded as “Virtually insoluble (20° C.)”.
